Assay results from patent US20020111274A1, “1-alkyl-3-[1-(substituted phenyl) benzotriazol-6-yl] uracils” (BASF Aktiengesellschaft, priority 2000, published 2002).

Legend:
Design in all cases: scale not given here
[1] = tested on: IPOHE Morningglory, Ivyleaf; assay: Postemergence herbicidal evaluation, IPOHE; assay type: in vivo, Ipomoea hederacea, (L.) Jacq.; details: postemergence spray, rated about two-three weeks after treatment
Outline: (§1)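 Plants are raised for roughly two weeks, then treated postemergence with compound dispersed in acetone/water (80/20) plus 1.0% seed oil adjuvant, at rates of about 0.006 kg to 0.400 kg per hectare. After greenhouse care, damage is scored two to three weeks later.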

[2] = tested on: TRZAWR Wheat, Winter, cv Riband; assay: Postemergence herbicidal evaluation, TRZAWR; assay type: in vivo, Triticum aestivum; details: postemergence spray, rated about two-three weeks after treatment
Outline: as §1

ORYSAT Rice, Tebonnet [3] = assay: Postemergence herbicidal evaluation, ORYSAT; assay type: in vivo, Oryza sativa, (L.); details: postemergence spray, rated about two-three weeks after treatment
Outline: as §1

AMBEL Ragweed, Common [4] = assay: Postemergence herbicidal evaluation, AMBEL; assay type: in vivo, Ambrosia artemisifolia, L.; details: postemergence spray, rated about two-three weeks after treatment
Outline: as §1

GALAP Galium [5] = assay: Preemergence herbicidal evaluation, GALAP; assay type: in vivo, Galium aparine; details: preemergence
Outline: (§2)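 Compound applied preemergence as an aqueous acetone spray onto freshly planted cups, dose equivalent approx. 0.013 to 0.800 kg/ha. Evaluation by rating at weeks 4–5.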

ECHOG Barnyardgrass [6] = assay: Postemergence herbicidal evaluation, ECHOG; assay type: in vivo, Echinochloa crus-galli, (L.) Beau; details: postemergence spray, rated about two-three weeks after treatment
Outline: as §1

ORYSAT Rice, Tebonnet [7] = assay: Preemergence herbicidal evaluation, ORYSAT; assay type: in vivo, Oryza sativa, (L.); details: preemergence
Outline: as §2

CASOB Sicklepod [8] = assay: Preemergence herbicidal evaluation, CASOB; assay type: in vivo, Cassia obtusifolia, L.; details: preemergence
Outline: as §2

CASOB Sicklepod [9] = assay: Postemergence herbicidal evaluation, CASOB; assay type: in vivo, Cassia obtusifolia, L.; details: postemergence spray, rated about two-three weeks after treatment
Outline: as §1

[10] = tested on: IPOHE Morningglory, Ivyleaf; assay: Preemergence herbicidal evaluation, IPOHE; assay type: in vivo, Ipomoea hederacea, (L.) Jacq.; details: preemergence
Outline: as §2

[11] = tested on: TRZAWR Wheat, Winter, cv Riband; assay: Preemergence herbicidal evaluation, TRZAWR; assay type: in vivo, Triticum aestivum; details: preemergence
Outline: as §2

ABUTH Velvetleaf [12] = assay: Preemergence herbicidal evaluation, ABUTH; assay type: in vivo, Abutilon theophrasti, Medic.; details: preemergence
Outline: as §2

[13] = tested on: CHEAL Lambsquarters, Common; assay: Postemergence herbicidal evaluation, CHEAL; assay type: in vivo, Chenopodium album, L.; details: postemergence spray, rated about two-three weeks after treatment
Outline: as §1

[14] = tested on: CHEAL Lambsquarters, Common; assay: Preemergence herbicidal evaluation, CHEAL; assay type: in vivo, Chenopodium album, L.; details: preemergence
Outline: as §2

ZEAMX Corn, Field [15] = assay: Postemergence herbicidal evaluation, ZEAMX; assay type: in vivo, Zea mays, L. (Sammel-Bezeichnung); details: postemergence spray, rated about two-three weeks after treatment
Outline: as §1

GLXMAW Soybean, Williams [16] = assay: Postemergence herbicidal evaluation, GLXMAW; assay type: in vivo, Glycine max, (L.) Merr. cv Williams; details: postemergence spray, rated about two-three weeks after treatment
Outline: as §1

ABUTH Velvetleaf [17] = assay: Postemergence herbicidal evaluation, ABUTH; assay type: in vivo, Abutilon theophrasti, Medic.; details: postemergence spray, rated about two-three weeks after treatment
Outline: as §1

GLXMAW Soybean, Williams [18] = assay: Preemergence herbicidal evaluation, GLXMAW; assay type: in vivo, Glycine max, (L.) Merr. cv Williams; details: preemergence
Outline: as §2

ECHOG Barnyardgrass [19] = assay: Preemergence herbicidal evaluation, ECHOG; assay type: in vivo, Echinochloa crus-galli, (L.) Beau; details: preemergence
Outline: as §2

GALAP Galium [20] = assay: Postemergence herbicidal evaluation, GALAP; assay type: in vivo, Galium aparine; details: postemergence spray, rated about two-three weeks after treatment
Outline: as §1

SETVI Foxtail, Green [21] = assay: Postemergence herbicidal evaluation, SETVI; assay type: in vivo, Setaria viridis, (L.) Beau; details: postemergence spray, rated about two-three weeks after treatment
Outline: as §1

SETVI Foxtail, Green [22] = assay: Preemergence herbicidal evaluation, SETVI; assay type: in vivo, Setaria viridis, (L.) Beau; details: preemergence
Outline: as §2

AMBEL Ragweed, Common [23] = assay: Preemergence herbicidal evaluation, AMBEL; assay type: in vivo, Ambrosia artemisifolia, L.; details: preemergence
Outline: as §2

ZEAMX Corn, Field [24] = assay: Preemergence herbicidal evaluation, ZEAMX; assay type: in vivo, Zea mays, L. (Sammel-Bezeichnung); details: preemergence
Outline: as §2

For `COc1ccc(-n2nnc3cc(F)c(-n4c(=O)cc(C(F)(F)F)n(C)c4=O)cc32)cc1` [Example 27], the “Postemergence herbicidal rating IPOHE” value ([1]; 0.008 kg/ha) was 9.0, the “Postemergence herbicidal rating IPOHE” value ([1]; 0.016 kg/ha) was 9.0 and the “Postemergence herbicidal rating IPOHE” value ([1]; 0.032 kg/ha) was 9.0. For the same compound, the “Postemergence herbicidal rating TRZAWR” value ([2]; 0.008 kg/ha) was 2.0, the “Postemergence herbicidal rating TRZAWR” value ([2]; 0.016 kg/ha) was 4.0 and the “Postemergence herbicidal rating TRZAWR” value ([2]; 0.032 kg/ha) was 4.5. For the same compound, the “Postemergence herbicidal rating ORYSAT” value (ORYSAT Rice, Tebonnet [3]; 0.008 kg/ha) was 2.5, the “Postemergence herbicidal rating ORYSAT” value (ORYSAT Rice, Tebonnet [3]; 0.016 kg/ha) was 4.5 and the “Postemergence herbicidal rating ORYSAT” value (ORYSAT Rice, Tebonnet [3]; 0.032 kg/ha) was 4.5. For the same compound, the “Postemergence herbicidal rating AMBEL” value (AMBEL Ragweed, Common [4]; 0.008 kg/ha) was 5.0, the “Postemergence herbicidal rating AMBEL” value (AMBEL Ragweed, Common [4]; 0.016 kg/ha) was 9.0 and the “Postemergence herbicidal rating AMBEL” value (AMBEL Ragweed, Common [4]; 0.032 kg/ha) was 9.0. The GALAP herbicidal rating (GALAP Galium [5]; rate 0.016 kg/ha) was 1.0, the GALAP herbicidal rating (GALAP Galium [5]; rate 0.032 kg/ha) was 2.0 and the GALAP herbicidal rating (GALAP Galium [5]; rate 0.062 kg/ha) was 9.0. For the same compound, the GALAP herbicidal rating (GALAP Galium [5]; rate 0.125 kg/ha) was 9.0, the “Postemergence herbicidal rating ECHCG” value (ECHOG Barnyardgrass [6]; 0.008 kg/ha) was 1.0 and the “Postemergence herbicidal rating ECHCG” value (ECHOG Barnyardgrass [6]; 0.016 kg/ha) was 1.0. For the same compound, the “Postemergence herbicidal rating ECHCG” value (ECHOG Barnyardgrass [6]; 0.032 kg/ha) was 2.0, the ORYSAT herbicidal rating (ORYSAT Rice, Tebonnet [7]; rate 0.016 kg/ha) was 1.0 and the ORYSAT herbicidal rating (ORYSAT Rice, Tebonnet [7]; rate 0.032 kg/ha) was 2.0. For the same compound, the ORYSAT herbicidal rating (ORYSAT Rice, Tebonnet [7]; rate 0.062 kg/ha) was 5.0, the ORYSAT herbicidal rating (ORYSAT Rice, Tebonnet [7]; rate 0.125 kg/ha) was 6.0 and the CASOB herbicidal rating (CASOB Sicklepod [8]; rate 0.016 kg/ha) was 0.0. The CASOB herbicidal rating (CASOB Sicklepod [8]; rate 0.032 kg/ha) was 1.0, the CASOB herbicidal rating (CASOB Sicklepod [8]; rate 0.062 kg/ha) was 2.0 and the CASOB herbicidal rating (CASOB Sicklepod [8]; rate 0.125 kg/ha) was 9.0. The “Postemergence herbicidal rating CASOB” value (CASOB Sicklepod [9]; 0.008 kg/ha) was 1.0, the “Postemergence herbicidal rating CASOB” value (CASOB Sicklepod [9]; 0.016 kg/ha) was 1.0 and the “Postemergence herbicidal rating CASOB” value (CASOB Sicklepod [9]; 0.032 kg/ha) was 6.0. It also gave an IPOHE herbicidal rating ([10]; rate 0.016 kg/ha) of 0.0, an IPOHE herbicidal rating ([10]; rate 0.032 kg/ha) of 1.0 and an IPOHE herbicidal rating ([10]; rate 0.062 kg/ha) of 1.0. It also gave an IPOHE herbicidal rating ([10]; rate 0.125 kg/ha) of 5.0, a TRZAWR herbicidal rating ([11]; rate 0.016 kg/ha) of 1.0 and a TRZAWR herbicidal rating ([11]; rate 0.032 kg/ha) of 2.0. For the same compound, the TRZAWR herbicidal rating ([11]; rate 0.062 kg/ha) was 3.0, the TRZAWR herbicidal rating ([11]; rate 0.125 kg/ha) was 2.0 and the ABUTH herbicidal rating (ABUTH Velvetleaf [12]; rate 0.032 kg/ha) was 6.0. For the same compound, the ABUTH herbicidal rating (ABUTH Velvetleaf [12]; rate 0.062 kg/ha) was 9.0, the ABUTH herbicidal rating (ABUTH Velvetleaf [12]; rate 0.125 kg/ha) was 9.0 and the “Postemergence herbicidal rating CHEAL” value ([13]; 0.008 kg/ha) was 4.0. The “Postemergence herbicidal rating CHEAL” value ([13]; 0.016 kg/ha) was 7.0, the “Postemergence herbicidal rating CHEAL” value ([13]; 0.032 kg/ha) was 9.0 and the CHEAL herbicidal rating ([14]; rate 0.016 kg/ha) was 9.0. It also gave a CHEAL herbicidal rating ([14]; rate 0.032 kg/ha) of 9.0, a CHEAL herbicidal rating ([14]; rate 0.062 kg/ha) of 9.0 and a CHEAL herbicidal rating ([14]; rate 0.125 kg/ha) of 9.0. The “Postemergence herbicidal rating ZEAMX” value (ZEAMX Corn, Field [15]; 0.008 kg/ha) was 4.5, the “Postemergence herbicidal rating ZEAMX” value (ZEAMX Corn, Field [15]; 0.016 kg/ha) was 5.0 and the “Postemergence herbicidal rating ZEAMX” value (ZEAMX Corn, Field [15]; 0.032 kg/ha) was 5.5. The “Postemergence herbicidal rating GLXMAW” value (GLXMAW Soybean, Williams [16]; 0.008 kg/ha) was 5.0, the “Postemergence herbicidal rating GLXMAW” value (GLXMAW Soybean, Williams [16]; 0.016 kg/ha) was 6.0 and the “Postemergence herbicidal rating GLXMAW” value (GLXMAW Soybean, Williams [16]; 0.032 kg/ha) was 6.0. The “Postemergence herbicidal rating ABUTH” value (ABUTH Velvetleaf [17]; 0.008 kg/ha) was 9.0, the “Postemergence herbicidal rating ABUTH” value (ABUTH Velvetleaf [17]; 0.016 kg/ha) was 9.0 and the “Postemergence herbicidal rating ABUTH” value (ABUTH Velvetleaf [17]; 0.032 kg/ha) was 9.0. The GLXMAW herbicidal rating (GLXMAW Soybean, Williams [18]; rate 0.016 kg/ha) was 1.0, the GLXMAW herbicidal rating (GLXMAW Soybean, Williams [18]; rate 0.032 kg/ha) was 1.0 and the GLXMAW herbicidal rating (GLXMAW Soybean, Williams [18]; rate 0.062 kg/ha) was 5.0. It also gave a GLXMAW herbicidal rating (GLXMAW Soybean, Williams [18]; rate 0.125 kg/ha) of 9.0, an ECHCG herbicidal rating (ECHOG Barnyardgrass [19]; rate 0.016 kg/ha) of 1.0 and an ECHCG herbicidal rating (ECHOG Barnyardgrass [19]; rate 0.032 kg/ha) of 4.0. The ECHCG herbicidal rating (ECHOG Barnyardgrass [19]; rate 0.062 kg/ha) was 9.0, the ECHCG herbicidal rating (ECHOG Barnyardgrass [19]; rate 0.125 kg/ha) was 9.0 and the “Postemergence herbicidal rating GALAP” value (GALAP Galium [20]; 0.008 kg/ha) was 1.0. For the same compound, the “Postemergence herbicidal rating GALAP” value (GALAP Galium [20]; 0.016 kg/ha) was 4.0, the “Postemergence herbicidal rating GALAP” value (GALAP Galium [20]; 0.032 kg/ha) was 9.0 and the “Postemergence herbicidal rating SETVI” value (SETVI Foxtail, Green [21]; 0.008 kg/ha) was 7.0. The “Postemergence herbicidal rating SETVI” value (SETVI Foxtail, Green [21]; 0.016 kg/ha) was 4.0, the “Postemergence herbicidal rating SETVI” value (SETVI Foxtail, Green [21]; 0.032 kg/ha) was 7.0 and the SETVI herbicidal rating (SETVI Foxtail, Green [22]; rate 0.016 kg/ha) was 9.0. It also gave an SETVI herbicidal rating (SETVI Foxtail, Green [22]; rate 0.032 kg/ha) of 9.0, an SETVI herbicidal rating (SETVI Foxtail, Green [22]; rate 0.062 kg/ha) of 9.0 and an SETVI herbicidal rating (SETVI Foxtail, Green [22]; rate 0.125 kg/ha) of 9.0. For the same compound, the AMBEL herbicidal rating (AMBEL Ragweed, Common [23]; rate 0.016 kg/ha) was 0.0, the AMBEL herbicidal rating (AMBEL Ragweed, Common [23]; rate 0.032 kg/ha) was 2.0 and the AMBEL herbicidal rating (AMBEL Ragweed, Common [23]; rate 0.062 kg/ha) was 7.0. It also gave an AMBEL herbicidal rating (AMBEL Ragweed, Common [23]; rate 0.125 kg/ha) of 9.0, a ZEAMX herbicidal rating (ZEAMX Corn, Field [24]; rate 0.016 kg/ha) of 2.0 and a ZEAMX herbicidal rating (ZEAMX Corn, Field [24]; rate 0.032 kg/ha) of 4.0. For the same compound, the ZEAMX herbicidal rating (ZEAMX Corn, Field [24]; rate 0.062 kg/ha) was 7.0 and the ZEAMX herbicidal rating (ZEAMX Corn, Field [24]; rate 0.125 kg/ha) was 7.0.
